Laboratory results taken from patent US9125913B2, “Bcl-2-selective apoptosis-inducing agents for the treatment of cancer and immune diseases” (AbbVie Inc., priority 2008, dated 2015).

Tests used:
GST-Bcl-2 = assay: TR-FRET binding assay, Bcl-2; details: TR-FRET Ki values
Outline: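 Ki values come from Wang's competitive-binding equation applied to TR-FRET signal (excitation 340/35 nm; emission 520/525 nm F-Bak peptide, 495/510 nm Tb antibody). Protein, probe and antibody incubated with compound 3 h at room temperature; dilution series began at 50 μM as 2× stock in 10% DMSO.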

FL5.12/Bcl-2 cells = assay: FL5.12/Bcl-2 cell viability assay; format: cell-based, murine; details: ratio of canine platelet EC50 to FL5.12/Bcl-2 EC50
Outline: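 Murine IL-3-dependent FL5.12 cells stably overexpressing Bcl-2 were deprived of IL-3 (WEHI-3B conditioned medium omitted) for 48 hrs, then exposed to various compound concentrations for a further 24 hrs at 37° C, 5% CO2. Viability was read by CellTitre Glo luminescence.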

Compound	Binding selectivity ratio (Bcl-XL Ki/Bcl-2 Ki) (GST-Bcl-2)	Selectivity Ratio (Platelet EC50/FL5.12/Bcl-2 EC50) (FL5.12/Bcl-2 cells)
CN1CCC(CNc2ccc(S(=O)(=O)NC(=O)c3ccc(N4CCN(CC5=C(c6ccc(Cl)cc6)CC(C)(C)CC5)CC4)cc3Oc3ccc4[nH]ccc4c3)cc2[N+](=O)[O-])CC1 [Example 104, 4-(4-{[2-(4-chlorophenyl)-4,4-dimethylcyclohex-1-en-1-yl]methyl}piperazin-1-yl)-2-(1H-indol-5-yloxy)-N-[(4-{[(1-methylpiperidin-4-yl)methyl]amino}-3-nitrophenyl)sulfonyl]benzamide]	637.7	>2392
O=C(NS(=O)(=O)c1ccc(NCCCN2CCCC2)c([N+](=O)[O-])c1)c1ccc(N2CCN(CC3=C(c4ccc(Cl)cc4)CCCCC3)CC2)cc1Oc1cccc2[nH]ccc12 [Example 141, 4-(4-{[2-(4-chlorophenyl)cyclohept-1-en-1-yl]methyl}piperazin-1-yl)-2-(1H-indol-4-yloxy)-N-({3-nitro-4-[(3-pyrrolidin-1-ylpropyl)amino]phenyl}sulfonyl)benzamide]	42.6	>661
CN(C)CCCNc1ccc(S(=O)(=O)NC(=O)c2ccc(N3CCN(CC4=C(c5ccc(Cl)cc5)CC(C)(C)CC4)CC3)cc2Oc2ccc3[nH]ccc3c2)cc1S(=O)(=O)C(F)(F)F [Example 170, 4-(4-{[2-(4-chlorophenyl)-4,4-dimethylcyclohex-1-en-1-yl]methyl}piperazin-1-yl)-N-({4-{[3-(dimethylamino)propyl]amino}-3-[(trifluoromethyl)sulfonyl]phenyl}sulfonyl)-2-(1H-indol-5-yloxy)benzamide]	30.2	507
CN1CCC(Nc2ccc(S(=O)(=O)NC(=O)c3ccc(N4CCN(Cc5ccccc5-c5ccc(Cl)cc5)CC4)cc3Oc3ccccc3)cc2[N+](=O)[O-])CC1 [Example 89, 4-{4-[(4′-chloro-1,1′-biphenyl-2-yl)methyl]piperazin-1-yl}-N-({4-[(1-methylpiperidin-4-yl)amino]-3-nitrophenyl}sulfonyl)-2-phenoxybenzamide]	57.8	495
CN1CCC(Nc2ccc(S(=O)(=O)NC(=O)c3ccc(N4CCN(CC5=C(c6ccc(Cl)cc6)CC(C)(C)CC5)CC4)cc3Oc3ccc4[nH]ccc4c3)cc2S(=O)(=O)C(F)(F)Cl)CC1 [Example 74, N-({3-{[chloro(difluoro)methyl]sulfonyl}-4-[(1-methylpiperidin-4-yl)amino]phenyl}sulfonyl)-4-(4-{[2-(4-chlorophenyl)-4,4-dimethylcyclohex-1-en-1-yl]methyl}piperazin-1-yl)-2-(1H-indol-5-yloxy)benzamide]	1262.5	1989
CN(C)CCCNc1ccc(S(=O)(=O)NC(=O)c2ccc(N3CCN(Cc4ccccc4-c4ccc(Cl)cc4)CC3)cc2Oc2cccc3[nH]ccc23)cc1[N+](=O)[O-] [Example 46, 4-{4-[(4′-chloro-1,1′-biphenyl-2-yl)methyl]piperazin-1-yl}-N-[(4-{[3-(dimethylamino)propyl]amino}-3-nitrophenyl)sulfonyl]-2-(1H-indol-4-yloxy)benzamide]	119.2	725
CC1(C)CCC(CN2CCN(c3ccc(C(=O)NS(=O)(=O)c4ccc(NCCCN5CCCC5)c([N+](=O)[O-])c4)c(Oc4cccc5[nH]ccc45)c3)CC2)=C(c2ccc(F)cc2)C1 [Example 73, 4-(4-{[2-(4-fluorophenyl)-4,4-dimethylcyclohex-1-en-1-yl]methyl}piperazin-1-yl)-2-(1H-indol-4-yloxy)-N-({3-nitro-4-[(3-pyrrolidin-1-ylpropyl)amino]phenyl}sulfonyl)benzamide]	9.9	166
CC1(C)CCC(CN2CCN(c3ccc(C(=O)NS(=O)(=O)c4ccc(NCCCN5CCOCC5)c([N+](=O)[O-])c4)c(Oc4ccc5c(c4)CCCN5)c3)CC2)=C(c2ccc(Cl)cc2)C1 [Example 22, 4-(4-{[2-(4-chlorophenyl)-4,4-dimethylcyclohex-1-en-1-yl]methyl}piperazin-1-yl)-N-({4-[(3-morpholin-4-ylpropyl)amino]-3-nitrophenyl}sulfonyl)-2-(1,2,3,4-tetrahydroquinolin-6-yloxy)benzamide]	20.2	>61
O=C(NS(=O)(=O)c1ccc(NCCCN2CCCC2)c([N+](=O)[O-])c1)c1ccc(N2CCN(Cc3cc(OCCN4CCOCC4)ccc3-c3ccc(Cl)cc3)CC2)cc1Oc1ccc2[nH]ccc2c1 [Example 136, 4-(4-{[4′-chloro-4-(2-morpholin-4-ylethoxy)-1,1′-biphenyl-2-yl]methyl}piperazin-1-yl)-2-(1H-indol-5-yloxy)-N-({3-nitro-4-[(3-pyrrolidin-1-ylpropyl)amino]phenyl}sulfonyl)benzamide]	238.9	>263
CN(C)CCCNc1ccc(S(=O)(=O)NC(=O)c2ccc(N3CCN(CC4=C(c5ccc(Cl)cc5)CC(C)(C)CC4)CC3)cc2Oc2ccc3[nH]ccc3c2)cc1[N+](=O)[O-] [Example 53, 4-(4-{[2-(4-chlorophenyl)-4,4-dimethylcyclohex-1-en-1-yl]methyl}piperazin-1-yl)-N-[(4-{[3-(dimethylamino)propyl]amino}-3-nitrophenyl)sulfonyl]-2-(1H-indol-5-yloxy)benzamide]	59.8	1697
CN1CCC(Nc2ccc(S(=O)(=O)NC(=O)c3ccc(N4CCN(CC5=C(c6ccc(Cl)cc6)CCCC5)CC4)cc3Oc3ccc4[nH]ccc4c3)cc2[N+](=O)[O-])CC1 [Example 75, 4-(4-{[2-(4-chlorophenyl)cyclohex-1-en-1-yl]methyl}piperazin-1-yl)-2-(1H-indol-5-yloxy)-N-({4-[(1-methylpiperidin-4-yl)amino]-3-nitrophenyl}sulfonyl)benzamide]	852.2	821
CN1CCC(Nc2ccc(S(=O)(=O)NC(=O)c3ccc(N4CCN(CC5=C(c6ccc(Cl)cc6)CC(C)(C)CC5)CC4)cc3Oc3ccc4[nH]ncc4c3)cc2[N+](=O)[O-])CC1 [Example 21, 4-(4-{[2-(4-chlorophenyl)-4,4-dimethylcyclohex-1-en-1-yl]methyl}piperazin-1-yl)-2-(1H-indazol-5-yloxy)-N-({4-[(1-methylpiperidin-4-yl)amino]-3-nitrophenyl}sulfonyl)benzamide]	35.1	>49
CN1CCC(Nc2ccc(S(=O)(=O)NC(=O)c3ccc(N4CCN(CC5=C(c6ccc(Cl)cc6)CCCC5)CC4)cc3Oc3cccc4[nH]ccc34)cc2[N+](=O)[O-])CC1 [Example 149, 4-(4-{[2-(4-chlorophenyl)cyclohex-1-en-1-yl]methyl}piperazin-1-yl)-2-(1H-indol-4-yloxy)-N-({4-[(1-methylpiperidin-4-yl)amino]-3-nitrophenyl}sulfonyl)benzamide]	>2490.6	1298
CC1(C)CCC(CN2CCN(c3ccc(C(=O)NS(=O)(=O)c4ccc(NCCCN5CCCC5)c([N+](=O)[O-])c4)c(Oc4cccc5[nH]ccc45)c3)CC2)=C(c2ccc(OC(F)(F)F)cc2)C1 [Example 70, 4-[4-({4,4-dimethyl-2-[4-(trifluoromethoxy)phenyl]cyclohex-1-en-1-yl}methyl)piperazin-1-yl]-2-(1H-indol-4-yloxy)-N-({3-nitro-4-[(3-pyrrolidin-1-ylpropyl)amino]phenyl}sulfonyl)benzamide]	62.4	>450
CN(C)CCCOc1ccc(S(=O)(=O)NC(=O)c2ccc(N3CCN(CC4=C(c5ccc(Cl)cc5)CC(C)(C)CC4)CC3)cc2Oc2ccc3[nH]ccc3c2)cc1[N+](=O)[O-] [Example 100, 4-(4-{[2-(4-chlorophenyl)-4,4-dimethylcyclohex-1-en-1-yl]methyl}piperazin-1-yl)-N-({4-[3-(dimethylamino)propoxy]-3-nitrophenyl}sulfonyl)-2-(1H-indol-5-yloxy)benzamide]	71.4	2029
CN(C)CCCNc1ccc(S(=O)(=O)NC(=O)c2ccc(N3CCN(CC4=C(c5ccc(Cl)cc5)CCC(C)(C)C4)CC3)cc2Oc2cccc3[nH]ccc23)cc1[N+](=O)[O-] [Example 56, 4-(4-{[2-(4-chlorophenyl)-5,5-dimethylcyclohex-1-en-1-yl]methyl}piperazin-1-yl)-N-[(4-{[3-(dimethylamino)propyl]amino}-3-nitrophenyl)sulfonyl]-2-(1H-indol-4-yloxy)benzamide]	48.2	554
O=C(NS(=O)(=O)c1ccc(NCC2CCOCC2)c([N+](=O)[O-])c1)c1ccc(N2CCN(Cc3c(OCCN4CCOCC4)cccc3-c3ccc(Cl)cc3)CC2)cc1Oc1ccc2[nH]ccc2c1 [Example 132, 4-(4-{[4′-chloro-3-(2-morpholin-4-ylethoxy)-1,1′-biphenyl-2-yl]methyl}piperazin-1-yl)-2-(1H-indol-5-yloxy)-N-({3-nitro-4-[(tetrahydro-2H-pyran-4-ylmethyl)amino]phenyl}sulfonyl)benzamide]	570.1	>1196
